Results reported in US11058654B2, “Compositions and methods for the treatment of hemoglobinopathies and thalassemias” (AXCELLA HEALTH INC., priority 2018, dated 2021).

Experiments:
VCAM-1 = VCAM-1 cell integrated intensity in HLMVEC treated with TNFa; assay type: cell-based, human; conditions: 0.5 ng/mL TNFα; amino acids at 20×; 24 hours; in words
Excerpt: (§1) A VEC model was employed to assess the ability of amino acids to influence aspects of vascular dysfunction in SCD. TNFa treatment of healthy donor HLMVEC mimics the SCD disease state and induces expression of adhesion markers ICAM-1 and VCAM-1, and secretion of proinflammatory cytokine IL-6. It is established that levels of ICAM-1, VCAM-1, and IL-6 can contribute to SCD pathology and correlate with the incidence and severity of complications in SCD patients. The VEC model sought to test the ability of amino acids to reduce the TNFa-induced disease phenotype by lowering expression of adhesion markers (ICAM-1 and VCAM-1) and inflammatory cytokines (IL-6) while promoting VEC health and viability.
(§2) Primary Human Lung Microvascular Endothelial Cells (HLMVEC; Lonza) were seeded at 6,000 cells per well in Endothelial Cell Growth Basal Medium-2 (Lonza) supplemented with Fetal Bovine Serum (FBS; Lonza), human EGF (Lonza), human VEGF (Lonza), R3-Insulin-like Growth Factor-1 (Lonza), ascorbic acid (Lonza), hydrocortisone (Lonza), human FGF-beta (Lonza), and gentamicin/amphotericin-b (Lonza) in a 96-well plate (Thermo Fisher). The cells were incubated for 45 minutes at room temperature, then incubated overnight at 37° C./5% CO2.
Following overnight incubation, cell were washed once with 150 μL of Dulbecco's phosphate buffered saline (DPBS; Gibco), and then treated with Endothelial Basal Medium MCB-131 (amino acid, glucose, sodium pyruvate, and phenol red free; US Biologicals) containing a defined custom amino acid concentration based on physiological concentrations in blood of patients with SCD (thus recapitulating observed metabolic imbalances such as the depletion of certain essential amino acids including arginine and aspartate and enrichment of certain non-essential amino acids including glutamate and asparagine), dialyzed FBS (Hyclone), human EGF (Lonza), human VEGF (Lonza), R3-Insulin-like Growth Factor-1 (Lonza), ascorbic acid (Lonza), hydrocortisone (Lonza), human FGF-beta (Lonza), and gentamicin/amphotericin-b (Lonza), glucose, 10 mM HEPES, sodium pyruvate, and sodium bicarbonate supplemented with one of the following: • a. PBS (vehicle control), • b. 0.5 ng/mL Tumor Necrosis Factor alpha (TNFα) and PBS, or; • c. 0.5 ng/mL TNFα and amino acid treatments at 20× mean physiological concentrations in plasma based on values published in the Human Metabolome Database (HMDB) in PBS.
After 24 hours of treatment, cells were washed once with 150 μL of DPBS (Gibco), then fixed with 4% paraformaldehyde. […]
(§3) Antibody binding was detected by fluorescence microscopy using a high content imager (Molecular Devices). Images were analyzed using MetaXpress 6 software to determine the integrated intensity per cell for each wavelength corresponding to ICAM-1 or VCAM-1.

ICAM-1 = ICAM-1 cell integrated intensity in HLMVEC treated with TNFa; assay type: cell-based, human; conditions: 0.5 ng/mL TNFα; amino acids at 20×; 24 hours; in words
Excerpt: as §1
as §2, with “The cells were incubated for 45 minutes at room temperature, then incubated overnight at 37° C./5% CO2.” left out
as §3

CC(=O)N[C@@H](CS)C(=O)O [N-Acetyl Cysteine, N-acetylcysteine]
VCAM-1 expression in HLMVEC (VCAM-1): greatly reduced | TNF-α induced ICAM-1 expression levels in HLMVEC (ICAM-1): reduced levels of ICAM-1 expression to a lesser extent
